Test results published in the NIST ThermoML archive (doi:10.1016/j.tca.2010.02.010).
Numbers after ± are expanded uncertainties.

Key:
[1] = 298.15 K; 101 kPa; Liquid; Vibrating tube method
[2] = xn = mol fraction of the nth substance listed; settings: 298.15 K, 101 kPa, Liquid, Vibrating tube method

## CCCCN [1-butanamine]
[1]
  mass density: 734.65 ± 0.21 kg/m3

## CCCCN [1-butanamine] + CC(C)CO
[2]; x1 = 0.0482
  mass density: 796.16 ± 0.3 kg/m3
[2]; x1 = 0.0921
  mass density: 794.54 ± 0.29 kg/m3
[2]; x1 = 0.1855
  mass density: 790.79 ± 0.28 kg/m3
[2]; x1 = 0.2961
  mass density: 785.62 ± 0.26 kg/m3
[2]; x1 = 0.3674
  mass density: 781.71 ± 0.25 kg/m3
[2]; x1 = 0.4578
  mass density: 776.31 ± 0.25 kg/m3
[2]; x1 = 0.5021
  mass density: 773.52 ± 0.24 kg/m3
[2]; x1 = 0.5502
  mass density: 770.4 ± 0.24 kg/m3
[2]; x1 = 0.6313
  mass density: 764.59 ± 0.23 kg/m3
[2]; x1 = 0.7237
  mass density: 757.45 ± 0.22 kg/m3
[2]; x1 = 0.8191
  mass density: 749.75 ± 0.22 kg/m3
[2]; x1 = 0.9098
  mass density: 742.18 ± 0.21 kg/m3
[2]; x1 = 0.9418
  mass density: 739.52 ± 0.21 kg/m3
[2]; x1 = 1
  mass density: 734.65 ± 0.21 kg/m3

## CCCCN [1-butanamine] + CCCCCl
[2]; x2 = 0
  mass density: 734.65 ± 0.21 kg/m3
[2]; x2 = 0.0428
  mass density: 740.64 ± 0.21 kg/m3
[2]; x2 = 0.0758
  mass density: 745.29 ± 0.21 kg/m3
[2]; x2 = 0.1564
  mass density: 756.7 ± 0.2 kg/m3
[2]; x2 = 0.2259
  mass density: 766.61 ± 0.2 kg/m3
[2]; x2 = 0.3163
  mass density: 779.6 ± 0.19 kg/m3
[2]; x2 = 0.3765
  mass density: 788.3 ± 0.19 kg/m3
[2]; x2 = 0.4412
  mass density: 797.66 ± 0.19 kg/m3
[2]; x2 = 0.4959
  mass density: 805.59 ± 0.18 kg/m3
[2]; x2 = 0.5804
  mass density: 817.91 ± 0.18 kg/m3
[2]; x2 = 0.6566
  mass density: 829.09 ± 0.17 kg/m3
[2]; x2 = 0.7272
  mass density: 839.52 ± 0.17 kg/m3
[2]; x2 = 0.7794
  mass density: 847.26 ± 0.17 kg/m3
[2]; x2 = 0.8465
  mass density: 857.31 ± 0.16 kg/m3
[2]; x2 = 0.8923
  mass density: 864.25 ± 0.16 kg/m3
[2]; x2 = 0.9437
  mass density: 872.12 ± 0.16 kg/m3

## CCCCCl [1-chlorobutane]
[1]
  mass density: 880.86 ± 0.15 kg/m3

## CCCCCl [1-chlorobutane] + CC(C)CO
[2]; x1 = 0.037
  mass density: 801.07 ± 0.3 kg/m3
[2]; x1 = 0.0748
  mass density: 804.35 ± 0.29 kg/m3
[2]; x1 = 0.1521
  mass density: 811.04 ± 0.28 kg/m3
[2]; x1 = 0.2331
  mass density: 817.97 ± 0.27 kg/m3
[2]; x1 = 0.3472
  mass density: 827.62 ± 0.25 kg/m3
[2]; x1 = 0.4266
  mass density: 834.27 ± 0.23 kg/m3
[2]; x1 = 0.4911
  mass density: 839.59 ± 0.22 kg/m3
[2]; x1 = 0.5817
  mass density: 847.01 ± 0.21 kg/m3
[2]; x1 = 0.6178
  mass density: 849.95 ± 0.2 kg/m3
[2]; x1 = 0.6855
  mass density: 855.42 ± 0.19 kg/m3
[2]; x1 = 0.7946
  mass density: 864.22 ± 0.18 kg/m3
[2]; x1 = 0.8885
  mass density: 871.78 ± 0.17 kg/m3
[2]; x1 = 0.9428
  mass density: 876.18 ± 0.16 kg/m3
[2]; x1 = 1
  mass density: 880.86 ± 0.15 kg/m3

## CCCCCl [1-chlorobutane] + CCCCN
[2]; x1 = 1
  mass density: 880.86 ± 0.15 kg/m3

## CC(C)CO [2-methyl-1-propanol]
[1]
  mass density: 797.84 ± 0.31 kg/m3

## CC(C)CO [2-methyl-1-propanol] + CCCCCl
[2]; x2 = 0
  mass density: 797.84 ± 0.31 kg/m3

## CC(C)CO [2-methyl-1-propanol] + CCCCN
[2]; x2 = 0
  mass density: 797.84 ± 0.31 kg/m3
